*1 amine or outer side, *2 acyl side, *3 side chain or, on linkers, in order; H or OH if unused. Where a SMILES comes first, the peptide text is derived from it. Bridges are numbered along the chain shown (N, C = ends). [ ]: non-standard residue; d: D form. The star is where a group is joined. Ethylenediamine = C(CN[*:2])N[*:1]; X1 = O=C(CC1(S[*:2])CCCCC1)[*:1]; NH(CH2)4NH2 = NCCCCN*; NHCH2CH2OH = OCCN*
Legend:
[1] = test system: antidiuretic response to arginine vasopressin; assay: Antagonism of the antidiuretic response to arginine vasopressin (Anti-ADH); format: in vivo, rats; conditions: for Anti-ADH pA2: Table 1, estimated in vivo pA2 = negative log of effective dose divided by volume of distribution (67 ml/kg); for Anti-ADH Potency pA2: estimated in vivo pA2
Description: Activity as antidiuretic agonists was determined by intravenous injection of the compounds being evaluated in ethanol-anesthesized water-loaded rats in accordance with Sawyer, Endocrinology, vol. 63 (1958) at 694. Antagonism of the antidiuretic response to subsequent injections of arginine vasopressin was tested by the method of Sawyer et al., Science, vol. 212 (1981) at 49.
(§1) Antagonistic potencies were determined and expressed as "effective doses" and pA2 values. The "effective dose" is defined as the dose (in nanomoles per kilogram) that reduces the response seen from 2x units of agonist injected 20 min after the dose of antagonist to the response with 1x units of agonist. Estimated in vivo "pA2 " values represent the negative logarithms of the effective doses, divided by the estimated volume of distribution (67 ml/kg).

[2] = test system: vasopressor response to arginine vasopressin; assay: Antagonism to the vasopressor response (Anti-VP); format: in vivo; conditions: estimated in vivo pA2; for Anti-VP pA2: Table 1
Description: Antagonism to the vasopressor response was estimated in accordance with Dyckes et al., J. Med. Chem., vol. 17 (1974) at 969. The values are expressed as pA2 values, defined as in Schild et al., Br. J. Pharmacol., vol. 2 (1947) at 189.
as §1

| Structure (SMILES) | Anti-ADH pA2 [1] | Anti-VP pA2 [2] | Anti-ADH Potency pA2 ([1]; Table 4) | Anti-VP Potency pA2 ([2]; Table 4, ^+ = mixed) | other results |
| --- | --- | --- | --- | --- | --- |
| CCOc1ccc(C[C@H]2NC(=O)CC3(CCCCC3)SSC[C@@H](C(=O)N3CCC[C@H]3C(=O)N[C@@H](CCCNC(=N)N)C(=O)NCC(N)=O)NC(=O)[C@H](CC(N)=O)NC(=O)[C@H](C(C)C)NC(=O)[C@H](Cc3ccccc3)NC2=O)cc1 [d(CH2)5 [D-Tyr(Et)^2]VAVP, [1-(beta-mercapto-beta,beta-cyclopentamethylenepropionic acid), 2-D-(O-ethyl)tyrosine, 4-valine]-arginine vasopressin, reference compound] ([dY](Et)FVNCPRG-NH2; linker N-5 via X1) | 7.81 ± 0.07 | 8.22 ± 0.12 | – | – | – |
| CCOc1ccc(C[C@H]2NC(=O)CC3(CCCCC3)SSC[C@@H](C(=O)N3CCC[C@H]3C(=O)N[C@@H](CCCNC(=N)N)C(=O)NCCO)NC(=O)[C@H](CC(N)=O)NC(=O)[C@H]([C@@H](C)CC)NC(=O)[C@H](Cc3ccccc3)NC2=O)cc1 [[1-(beta-mercapto-beta,beta-cyclopentamethylenepropionic acid), 2-D-(O-ethyl)tyrosine, 4-isoleucine, 8-arginine-N-(beta-hydroxy)ethylamide, 9-desglycinamide] vasopressin] ([dY](Et)FINCPR-NHCH2CH2OH; linker N-5 via X1) | – | – | 7.82 ± 0.06 | 7.89 ± 0.09 | – |
| CC(C)[C@@H]1NC(=O)[C@H](Cc2ccccc2)NC(=O)[C@@H](Cc2ccccc2)NC(=O)CC2(CCCCC2)SSC[C@@H](C(=O)N2CCC[C@H]2C(=O)N[C@@H](CCCNC(=N)N)C(=O)O)NC(=O)[C@H](CC(N)=O)NC1=O [desGly(NH2)^9 d(CH2)5 [D-Phe^2]VAVP, [1-(beta-mercapto-beta,beta-cyclopentamethylenepropionic acid), 2-D-phenylalanine, 4-valine, 9-desglycinamide]-arginine vasopressin] ([dF]FVNCPR-OH; linker N-5 via X1) | 7.75 ± 0.11 | 7.93 ± 0.05 | – | – | – |
| CCOc1ccc(C[C@H]2NC(=O)CC3(CCCCC3)SSC[C@@H](C(=O)N3CCC[C@H]3C(=O)N[C@@H](CCCNC(=N)N)C(=O)NCC(=O)NCCN)NC(=O)[C@H](CC(N)=O)NC(=O)[C@H]([C@@H](C)CC)NC(=O)[C@H](Cc3ccccc3)NC2=O)cc1 [[1-(beta-mercapto-beta,beta-cyclopentamethylenepropionic acid), 2-D-(O-ethyl)tyrosine, 4-isoleucine, 9-glycine-N-(beta-amino)ethylamide]-arginine vasopressin] ([dY](Et)FINCPRG-Ethylenediamine; linker N-5 via X1) | – | – | 7.86 ± 0.04 | 8.07 ± 0.03 | – |
| CC[C@H](C)[C@@H]1NC(=O)[C@H](Cc2ccccc2)NC(=O)[C@@H](Cc2ccccc2)NC(=O)CC2(CCCCC2)SSC[C@@H](C(=O)N2CCC[C@H]2C(=O)N[C@@H](CCCNC(=N)N)C(=O)NCC(=O)NC)NC(=O)[C@H](CC(N)=O)NC1=O [[1-(beta-mercapto-beta,beta-cyclopentamethylenepropionic acid), 2-D-phenylalanine, 4-isoleucine, 9-glycine-N-methylamide]-arginine vasopressin] ([dF]FINCPRG-NHMe; linker N-5 via X1) | – | – | 8.07 ± 0.07 | 6.22 | – |
| CC[C@H](C)[C@@H]1NC(=O)[C@H](Cc2ccccc2)NC(=O)[C@@H](Cc2ccccc2)NC(=O)CC2(CCCCC2)SSC[C@@H](C(=O)N2CCC[C@H]2C(=O)N[C@@H](CCCNC(=N)N)C(=O)NCC(=O)O)NC(=O)[C@H](CC(N)=O)NC1=O [d(CH2)5 [D-Phe^2,Ile^ 4]AVP acid, [1-(beta-mercapto-beta,beta-cyclopentamethylenepropionic acid), 2-D-phenylalanine, 4-isoleucine, 9-glycine]-arginine vasopressin] ([dF]FINCPRG-OH; linker N-5 via X1) | 7.11 ± 0.11 | 6.94 ± 0.08 | – | – | – |
| CC[C@H](C)[C@@H]1NC(=O)[C@H](Cc2ccccc2)NC(=O)[C@@H](Cc2ccccc2)NC(=O)CC2(CCCCC2)SSC[C@@H](C(=O)N2CCC[C@H]2C(=O)N[C@@H](CCCNC(=N)N)C(=O)N[C@@H](C)C(N)=O)NC(=O)[C@H](CC(N)=O)NC1=O [Ala(NH2), [1-(beta-mercapto-beta,beta-cyclopentamethylenepropionic acid), 2-D-phenylalanine, 4-isoleucine, 9-alaninamide]-arginine vasopressin] ([dF]FINCPRA-NH2; linker N-5 via X1) | – | – | – | – | Anti-ADH Potency pA2 ([1]; Table 2): 8.38 ± 0.13; Anti-VP Potency pA2 ([2]; Table 2): 7.67 ± 0.04 |
| CC[C@H](C)[C@@H]1NC(=O)[C@H](Cc2ccccc2)NC(=O)[C@@H](Cc2ccccc2)NC(=O)CC2(CCCCC2)SSC[C@@H](C(=O)N2CCC[C@H]2C(=O)N[C@@H](CCCNC(=N)N)C(=O)NCCCCN)NC(=O)[C@H](CC(N)=O)NC1=O [[1-(beta-mercapto-beta,beta-cyclopentamethylenepropionic acid), 2-D-phenylalanine, 4-isoleucine, 8-arginine-N-(delta-amino)butylamide, 9-desglycinamide] vasopressin] ([dF]FINCPR-{NH(CH2)4NH2}; linker N-5 via X1) | – | – | 8.11 ± 0.03 | 7.61 ± 0.08 | – |
| CC(C)[C@@H]1NC(=O)[C@H](Cc2ccccc2)NC(=O)[C@@H](Cc2ccccc2)NC(=O)CC2(CCCCC2)SSC[C@@H](C(=O)N2CCC[C@H]2C(=O)N[C@@H](CCCNC(=N)N)C(=O)NCC(N)=O)NC(=O)[C@H](CC(N)=O)NC1=O [d(CH2) 5 [D-Phe^2]VAVP, [1-(beta-mercapto-beta,beta-cyclopentamethylenepropionic acid), 2-D-phenylalanine, 4-valine]-arginine vasopressin, reference compound] ([dF]FVNCPRG-NH2; linker N-5 via X1) | 8.06 ± 0.09 | 8.06 ± 0.03 | – | – | – |
| CC[C@H](C)[C@@H]1NC(=O)[C@H](Cc2ccccc2)NC(=O)[C@@H](Cc2ccccc2)NC(=O)CC2(CCCCC2)SSC[C@@H](C(=O)N2CCC[C@H]2C(=O)N[C@@H](CCCNC(=N)N)C(=O)N[C@H](C)C(N)=O)NC(=O)[C@H](CC(N)=O)NC1=O [D-Ala(NH2), [1-(beta-mercapto-beta,beta-cyclopentamethylenepropionic acid), 2-D-phenylalanine, 4-isoleucine, 9-D-alaninamide]-arginine vasopressin] ([dF]FINCPR[dA]-NH2; linker N-5 via X1) | – | – | – | – | Anti-ADH Potency pA2 ([1]; Table 2): 7.38 ± 0.08; Anti-VP Potency pA2 ([2]; Table 2): 7.55 ± 0.05 |
| CCOc1ccc(C[C@H]2NC(=O)CC3(CCCCC3)SSC[C@@H](C(=O)N3CCC[C@H]3C(=O)N[C@@H](CCCNC(=N)N)C(=O)N[C@@H](C)C(=O)NC)NC(=O)[C@H](CC(N)=O)NC(=O)[C@H](C(C)C)NC(=O)[C@H](Cc3ccccc3)NC2=O)cc1 [[1-(beta-mercapto-beta,beta-cyclopentamethylenepropionic acid), 2-D-(O-ethyl)tyrosine, 4-valine, 9-alanine-N-methylamide]-arginine vasopressin] ([dY](Et)FVNCPRA-NHMe; linker N-5 via X1) | – | – | 7.92 ± 0.06 | 8.17 ± 0.04 | – |

— US4772586A, “Novel derivatives of arginine vasopressin antagonists” (Medical College of Ohio, priority 1986, dated 1988)
